Assay results reported in patent US20250059184A1 (priority 2021, published 2025).

Assays:
[1] = test system: mice; settings: mouse, in vivo; cited from earlier work
[2] = test system: 5HT2A sensor; settings: cited from earlier work
[3] = test system: 5HT2A sensor; settings: cited from earlier work; remark: listed apart in the source
[4] = molecular target: T1, 5-HT2A (Homo sapiens, UniProt P28223); assay: Serotonin 5-HT2A in vitro cellular IPOne agonism assay (HTRF); type: cell-based; set-up: host or cells: CHO-K1; settings: CHO-K1 cells, agonist mode
Description: (§1) Serotonin 5-HT2A In Vitro Cellular IPOne Agonism Assay. The 5-HT2A IPOne HTRF assay was performed at Epics Therapeutics S.A. (Belgium, FAST-0505I) using conventional methods. Briefly, CHO-K1 cells expressing human recombinant 5-HT2A receptor grown to mid-log phase in culture media without antibiotics were detached with PBS-EDTA, centrifuged, and resuspended in medium without antibiotics buffer. 20,000 cells were distributed in a 96 well plate and incubated overnight at 37° C. with 5% Co2.
For agonist testing, the medium was removed and 20 μl of assay buffer plus 20 μl of test compound or reference agonist were added in each well. The plate was incubated for 60 min. at 37° C. with 5% CO2.
(§2) After addition of the lysis buffer containing IP1-d2 and anti-IP1 cryptate detection reagents, plates were incubated 1-hour at room temperature, and fluorescence ratios were measured according to the manufacturer specification, with the HTRF kit.

[5] = molecular target: T1, 5-HT2A; assay: Serotonin 5-HT2A in vitro cellular IPOne antagonism assay (HTRF); type: cell-based; set-up: host or cells: CHO-K1; settings: CHO-K1 cells, reference agonist α-Me-5HT; read-out: 5-HT2A IPOne Antagonist Activity
Description: as §1, with “Antagonism” for “Agonism”, “FAST-O0505) in antagonism mode” for “FAST-0505I)”
For antagonist testing, a reference agonist α-Me-5HT was added and fluorescence signal monitored for several minutes, followed by addition of 20 μl of assay buffer plus 20 μl of test compound or reference antagonist ketanserin, in each well. The plate was incubated for 60 min. at 37° C. with 5% CO2.
as §2

[6] = molecular target: T1, 5-HT2A; assay: Serotonin 5-HT2A in vitro radioligand binding competition assay ([3H]-DOI); set-up: purchased Epics Therapeutics S.A. (Belgium) FAST-0505B; settings: [3H]-DOI radiotracer, membrane extracts
Description: Serotonin 5-HT2A In Vitro Radioligand Binding Competition Assay. The 5-HT2A radioligand binding competition assay was performed at Epics Therapeutics S.A. (Belgium, FAST-0505B) using conventional methods. Briefly, competition binding was performed in duplicate in the wells of a 96 well plate (Master Block, Greiner, 786201) containing binding buffer (optimized for each receptor), membrane extracts (amount of protein/well optimized for each receptor), radiotracer [^3H]-DOI (final concentration optimized for each receptor) and test compound. Nonspecific binding was determined by co-incubation with 200-fold excess of cold competitor. The samples were incubated in a final volume of 0.1 ml at a temperature and for a duration optimized for each receptor and then filtered over filter plates. Filters were washed six times with 0.5 ml of ice-cold washing buffer (optimized for each receptor) and 50 μl of Microscint 20 (Packard) were added in each well. The plates were incubated 15 min on an orbital shaker and then counted with a TopCount™ for 1 min/well.

T1 sequence (P28223 whole entry): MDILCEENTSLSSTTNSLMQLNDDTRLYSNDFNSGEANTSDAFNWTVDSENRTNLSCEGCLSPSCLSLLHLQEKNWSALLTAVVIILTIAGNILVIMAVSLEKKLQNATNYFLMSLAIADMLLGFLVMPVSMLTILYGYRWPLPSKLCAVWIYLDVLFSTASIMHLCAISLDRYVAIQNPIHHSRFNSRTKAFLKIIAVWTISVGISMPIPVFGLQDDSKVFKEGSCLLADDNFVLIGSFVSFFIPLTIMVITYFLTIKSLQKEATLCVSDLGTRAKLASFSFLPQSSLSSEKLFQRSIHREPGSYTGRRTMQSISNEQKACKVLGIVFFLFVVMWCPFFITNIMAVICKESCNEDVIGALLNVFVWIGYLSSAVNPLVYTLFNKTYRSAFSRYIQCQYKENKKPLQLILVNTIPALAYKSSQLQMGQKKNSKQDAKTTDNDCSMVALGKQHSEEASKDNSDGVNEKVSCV

5-MeO-DMT [Compound 5-MeO-DMT]
head-twitch response (HTR) [1]: robust, dose-dependent head-twitch response | activation of the 5HT2A sensor assay in agonist mode [2]: activate the 5HT2A sensor assay in agonist mode

6-F-DET [Compound 6-F-DET]
activation of the 5HT2A sensor assay in agonist mode [2]: do not activate the 5HT2A sensor assay in agonist mode | competition with 5-HT in the 5HT2A sensor assay in antagonist mode [3]: can compete with 5HT binding to 5HT2A

6-MeO-DMT [Compound 6-MeO-DMT]
head-twitch response (HTR) [1]: does not produce a HTR | activation of the 5HT2A sensor assay in agonist mode [2]: do not activate the 5HT2A sensor assay in agonist mode | competition with 5-HT in the 5HT2A sensor assay in antagonist mode [3]: compete off 5-HT

c1ccn2c(CC3CCCN3)ncc2c1 (centres unmarked) [Compound 13, 3-(Pyrrolidin-2-ylmethyl)imidazo[1,5-a]pyridine]
EC50 [4]: > 10000 nM | IC50 [5]: 1000 to 10000 nM | IC50 [6]: 1000 to 10000 nM

CN(C)CCc1ncc2ccccn12 [Compound 14, 2-(Imidazo[1,5-a]pyridin-3-yl)-N,N-dimethylethan-1-amine]
EC50 [4]: > 10000 nM | IC50 [5]: 1000 to 10000 nM | IC50 [6]: 1000 to 10000 nM

CC(Cc1ncc2ccccn12)N(C)C (centres unmarked) [Compound 15, 1-(imidazo [1,5-a]pyridin-3-yl)-N,N-dimethylpropan-2-amine]
EC50 [4]: > 10000 nM | IC50 [5]: 1000 to 10000 nM | IC50 [6]: 1000 to 10000 nM

CC(Cc1ncc2cc(F)ccn12)N(C)C (centres unmarked) [Compound 17, 1-(7-fluoroimidazo[1,5-a]pyridin-3-yl)-N,N-dimethylpropan-2-amine]
EC50 [4]: > 10000 nM | IC50 [5]: 101 to 1000 nM | IC50 [6]: 101 to 1000 nM

CN(C)C(C)(C)Cc1ncc2ccccn12 [Compound 19, 1-(imidazo [1,5-a]pyridin-3-yl)-N,N,2-trimethylpropan-2-amine]
EC50 [4]: > 10000 nM | IC50 [5]: 1000 to 10000 nM | IC50 [6]: 1000 to 10000 nM

CC(C)NC(C)Cc1ncc2ccccn12 (centres unmarked) [Compound 26, 1-(imidazo [1,5-a]pyridin-3-yl)-N-isopropylpropan-2-amine]
EC50 [4]: > 10000 nM | IC50 [5]: 101 to 1000 nM | IC50 [6]: 101 to 1000 nM

CC(Cc1ncc2ccccn12)N1CCCC1 (centres unmarked) [Compound 27, 3-(2-(pyrrolidin-1-yl)propyl)imidazo[1,5-a]pyridine]
EC50 [4]: > 10000 nM | IC50 [5]: 1000 to 10000 nM | IC50 [6]: 1000 to 10000 nM

C[C@H](Cc1ncc2ccccn12)N(C)C [Compound 30, (R)-1-(imidazo[1,5-a]pyridin-3-yl)-N,N-dimethylpropan-2-amine]
EC50 [4]: > 10000 nM | IC50 [5]: 1000 to 10000 nM | IC50 [6]: 101 to 1000 nM

CN1CCCC1Cc1ncc2ccccn12 (centres unmarked) [Compound 31, 3-((1-Methylpyrrolidin-2-yl)methyl)imidazo[1,5-a]pyridine]
EC50 [4]: > 10000 nM | IC50 [5]: 101 to 1000 nM | IC50 [6]: 1000 to 10000 nM

CN1CCC(c2ncc3ccccn23)C1 (centres unmarked) [Compound 32, 3-(1-methylpyrrolidin-3-yl)imidazo[1,5-a]pyridine]
EC50 [4]: > 10000 nM | IC50 [5]: 1000 to 10000 nM | IC50 [6]: 101 to 1000 nM

CN(C)CCc1ncn2ccccc12 [Compound 43, 2-(imidazo [1,5-a]pyridin-1-yl)-N,N-dimethylethan-1-amine]
EC50 [4]: > 10000 nM | IC50 [5]: 101 to 1000 nM | IC50 [6]: 1000 to 10000 nM

CC(Cc1ncn2ccccc12)N(C)C (centres unmarked) [Compound 44, 1-(imidazo [1,5-a]pyridin-1-yl)-N,N-dimethylpropan-2-amine]
EC50 [4]: > 10000 nM | IC50 [5]: 101 to 1000 nM | IC50 [6]: 1000 to 10000 nM

CN(C)CCc1c[nH]c2ccccc12 [DMT, N,N-dimethyltryptamine]
activation of the 5HT2A sensor assay in agonist mode [2]: activate the 5HT2A sensor assay in agonist mode

O=C(c1ccc(F)cc1)C1CCN(CCn2c(=O)[nH]c3ccccc3c2=O)CC1 [Ketanserin]
activation of the 5HT2A sensor assay in agonist mode [2]: do not activate the 5HT2A sensor assay in agonist mode | competition with 5-HT in the 5HT2A sensor assay in antagonist mode [3]: can compete with 5HT binding to 5HT2A

BOL148
activation of the 5HT2A sensor assay in agonist mode [2]: do not activate the 5HT2A sensor assay in agonist mode | competition with 5-HT in the 5HT2A sensor assay in antagonist mode [3]: can compete with 5HT binding to 5HT2A

L-MDMA
activation of the 5HT2A sensor assay in agonist mode [2]: do not activate the 5HT2A sensor assay in agonist mode

R-MDMA
activation of the 5HT2A sensor assay in agonist mode [2]: do not activate the 5HT2A sensor assay in agonist mode
